Laboratory results published in patent EP4488278A1, “SUBSTITUTED PYRIDYL/PYRAZINYL DIHYDROPYRROLOTRIAZINE COMPOUNDS FOR COMBATTING PHYTOPATH-OGENIC FUNGI” (BASF SE, priority 2023, dated 2025).

Tests used:
Botrytis cinerea [1] = assay: Green house: preventative fungicidal control of Botrytis cinerea on leaves of green pepper; assay type: in vivo; conditions: 250 ppm active substance, green pepper plants sprayed to run-off one day before inoculation; assessed visually as % diseased leaf area after 5 days at 22 to 24°C; untreated plants 90% infected
Protocol: The compound was dissolved in a mixture of acetone and/or dimethylsulfoxide and the wetting agent/emulsifier Wettol, which is based on ethoxylated alkylphenoles, in a ratio (volume) solvent-emulsifier of 99 to 1 to give a total volume of 5 ml. Subsequently, water was added to total volume of 100 ml. This stock solution was then diluted with the described solvent-emulsifier-water mixture to the final concentration given in the table below. Young seedlings of green pepper were grown in pots to the 4 to 5 leaf stage. These plants were sprayed to run-off with previously described spray solution, containing the concentration of active ingredient or mixture mentioned in the table below. The next day the plants were inoculated with an aqueous biomalt or DOB solution containing the spore suspension of Botrytis cinerea. Then the plants were immediately transferred to a humid chamber. After 5 days at 22 to 24°C and a saturated relative humidity, the extent of fungal attack on the leaves was visually assessed as % diseased leaf area.

Botrytis cinerea [2] = assay: Microtest: activity against the grey mold Botrytis cinerea in the microtiterplate test; assay type: cell-based; conditions: 31 ppm active substance; absorption at 405 nm 7 days after inoculation, 18°C; relative to active compound-free control (100%)
Protocol: The active compounds were formulated separately as a stock solution having a concentration of 10000 ppm in dimethyl sulfoxide.
The stock solutions were mixed according to the ratio, pipetted onto a micro titer plate (MTP) and diluted with water to the stated concentrations. A spore suspension of Botrci cinerea in an aqueous biomalt or yeast-bactopeptone-sodiumacetate solution was then added. The plates were placed in a water vapor-saturated chamber at a temperature of 18°C. Using an absorption photometer, the MTPs were measured at 405 nm 7 days after the inoculation.
The measured parameters were compared to the growth of the active compound-free control variant (100%) and the fungus-free blank value to determine the relative growth in % of the pathogens in the respective active compounds.

Row | SMILES | growth of the pathogen (Botrytis cinerea [1]) | growth of the pathogen (Botrytis cinerea [2])
1 | Cc1cc(C2=NC(C)(C)N(C)n3cccc32)cnc1C(F)F [Ex-1, 4-(6-(difluoromethyl)-5-methylpyridin-3-yl)-1,2,2-trimethyl-1,2-dihydropyrrolo[2,1-f][1,2,4]triazine] | at most 7% | 0%
2 | Cc1cc(C2=NC(C)(C)Nn3cccc32)cnc1C(F)F [Ex-2, 4-(6-(difluoromethyl)-5-methylpyridin-3-yl)-2,2-dimethyl-1,2-dihydropyrrolo[2,1-f][1,2,4]triazine] |  | 0%
